# Substitutions are numbered along the chain they refer to.
# Assays:
# Format in all cases: cell-based
# OX2R R328A = molecular target: T1, OX2R R328A (Homo sapiens, UniProt O43614, R328A); test: β-arrestin PathHunter assay, OX2R R328A; details: β-arrestin recruitment
# T1 construct: expressed in transfected cells; host or cells: CHO-K1 stably expressing EA β-arrestin2
# Description: (§1) β-Arrestin recruitment activity was measured by using the PathHunter system (DiscoveRX) according to the manufacturer’s instruction. Receptor constructs used were the full-length wild-type (or mutant) human OX2R sequences cloned into pCMV-ProLink (DiscoveRX). CHO-K1 cells stably expressing EA β-arrestin2 (DiscoveRX) were plated on 384 well white plates (Thermo Fisher) at 4000 cells/well in HamF12 (Wako Pure Chemical Industries) supplemented with 10% fetal bovine serum (Corning) and penicillin-streptomycin (Wako Pure Chemical Industries) and incubated overnight at 37 °C under 5% CO2. Cells were transfected with plasmids encoding wild type or each mutant ProLink-tagged human OX2R using FuGENE HD (Promega). […] Detection reagent was added and incubated for 1 h at room temperature. Luminescent signal was detected using an EnVision plate reader (PerkinElmer). β-arrestin assays on different constructs were performed in two or three independent experiments (each done in quadruplicate). Dose response curves (shown in Supplementary Fig. 8) were fitted to the three-parameter model ‘log(agonist) vs response’ in GraphPad Prism to determine pEC50 values.
# OX2R T135A = molecular target: T2, OX2R T135A (Homo sapiens, UniProt O43614, T135A); test: IP accumulation assay, OX2R T135A
# T2 construct: FLAG; expressed in transfected cells; host or cells: HEK293
# T2 sequence (O43614 whole entry T135A): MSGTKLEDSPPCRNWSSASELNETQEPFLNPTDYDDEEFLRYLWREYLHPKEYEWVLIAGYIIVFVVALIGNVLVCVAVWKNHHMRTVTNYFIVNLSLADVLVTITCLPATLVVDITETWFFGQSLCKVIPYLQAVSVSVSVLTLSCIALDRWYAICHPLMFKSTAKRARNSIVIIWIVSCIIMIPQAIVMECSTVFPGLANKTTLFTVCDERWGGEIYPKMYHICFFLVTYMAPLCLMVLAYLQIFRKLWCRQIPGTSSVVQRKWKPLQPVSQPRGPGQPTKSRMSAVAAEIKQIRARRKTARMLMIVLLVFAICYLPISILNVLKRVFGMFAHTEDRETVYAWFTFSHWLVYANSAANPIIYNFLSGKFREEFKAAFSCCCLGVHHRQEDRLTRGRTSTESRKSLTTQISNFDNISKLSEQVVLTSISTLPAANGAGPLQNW
# Source text: The IP assay was adapted from a prior precedent. HEK293 cells were maintained in DMEM-high glucose (Millipore Sigma) supplemented with 5% fetal bovine serum (Corning) and penicillin-streptomycin (Millipore Sigma). Receptor constructs used were the full-length wild-type (or mutant) human OX1R and OX2R sequences cloned into pCDNA3. To enhance the Emax in the IP assay, a plasmid encoding full-length human Gαq subunit[66] was co-transfected into HEK293 cells with plasmids encoding orexin receptor constructs using Lipofectamine 3000 (Thermo Fisher). 24 h after transfection, the cells were plated on poly-D-lysine coated (Millipore Sigma) tissue culture-treated 96 well white plates with clear bottoms (Perkin Elmer) at 30,000 cells per well in Inositol-free DMEM (MP Biomedicals) supplemented with 5% fetal bovine serum, 4 mM L-glutamine (Millipore Sigma), penicillin-streptomycin, and about 5 uCi (5 ul) per ml myo-[2-3H] inositol (Perkin Elmer). The following day, the media was replaced with agonists that were diluted in HBSS (Millipore Sigma) containing 10 mM lithium chloride (Millipore Sigma) and incubated at 37 °C for 45 min. Then agonists were removed and cells were lysed on ice for 30 min with 10 mM formic acid (Millipore Sigma). […] The plates were read on a MicroBeta scintillation counter (Perkin Elmer) the following day. […]
# OX2R H350A = molecular target: T3, OX2R H350A (Homo sapiens, UniProt O43614, H350A); test: β-arrestin PathHunter assay, OX2R H350A; details: β-arrestin recruitment
# T3 construct: expressed in transfected cells; host or cells: CHO-K1 stably expressing EA β-arrestin2
# T3 sequence (O43614 whole entry H350A): as the sequence (O43614 whole entry T135A) above, with A135T, H350A counted along it
# Description: as §1
# OX2R F228A = molecular target: T4, OX2R F228A (Homo sapiens, UniProt O43614, F228A); test: β-arrestin PathHunter assay, OX2R F228A; details: β-arrestin recruitment
# T4 construct: expressed in transfected cells; host or cells: CHO-K1 stably expressing EA β-arrestin2
# T4 sequence (O43614 whole entry F228A): as the sequence (O43614 whole entry T135A) above, with A135T, F228A counted along it
# Description: as §1
# OX2R Y232A = molecular target: T5, OX2R Y232A (Homo sapiens, UniProt O43614, Y232A); test: β-arrestin PathHunter assay, OX2R Y232A; details: β-arrestin recruitment
# T5 construct: expressed in transfected cells; host or cells: CHO-K1 stably expressing EA β-arrestin2
# T5 sequence (O43614 whole entry Y232A): as the sequence (O43614 whole entry T135A) above, with A135T, Y232A counted along it
# Description: as §1
# OX1R S103T/A127T = molecular target: T6, OX1R S103T/A127T (Homo sapiens, UniProt O43613, A127T/S103T); test: IP accumulation assay, OX1R S103T/A127T
# T6 construct: FLAG; expressed in transfected cells; host or cells: HEK293
# T6 sequence (O43613 1-425 S103T/A127T): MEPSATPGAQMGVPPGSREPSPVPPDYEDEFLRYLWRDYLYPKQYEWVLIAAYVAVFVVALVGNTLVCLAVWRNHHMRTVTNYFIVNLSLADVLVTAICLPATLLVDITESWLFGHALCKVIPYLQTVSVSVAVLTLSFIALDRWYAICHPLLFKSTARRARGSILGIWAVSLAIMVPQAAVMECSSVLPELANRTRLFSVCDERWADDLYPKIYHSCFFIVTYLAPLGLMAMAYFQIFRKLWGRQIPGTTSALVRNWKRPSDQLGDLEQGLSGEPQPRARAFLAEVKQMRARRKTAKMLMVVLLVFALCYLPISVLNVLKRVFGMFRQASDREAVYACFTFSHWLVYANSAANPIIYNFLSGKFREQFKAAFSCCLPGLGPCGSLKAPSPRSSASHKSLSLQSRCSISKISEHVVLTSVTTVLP
# Source text: (§2) The IP assay was adapted from a prior precedent. HEK293 cells were maintained in DMEM-high glucose (Millipore Sigma) supplemented with 5% fetal bovine serum (Corning) and penicillin-streptomycin (Millipore Sigma). Receptor constructs used were the full-length wild-type (or mutant) human OX1R and OX2R sequences cloned into pCDNA3. To enhance the Emax in the IP assay, a plasmid encoding full-length human Gαq subunit[66] was co-transfected into HEK293 cells with plasmids encoding orexin receptor constructs using Lipofectamine 3000 (Thermo Fisher). 24 h after transfection, the cells were plated on poly-D-lysine coated (Millipore Sigma) tissue culture-treated 96 well white plates with clear bottoms (Perkin Elmer) at 30,000 cells per well in Inositol-free DMEM (MP Biomedicals) supplemented with 5% fetal bovine serum, 4 mM L-glutamine (Millipore Sigma), penicillin-streptomycin, and about 5 uCi (5 ul) per ml myo-[2-3H] inositol (Perkin Elmer). The following day, the media was replaced with agonists that were diluted in HBSS (Millipore Sigma) containing 10 mM lithium chloride (Millipore Sigma) and incubated at 37 °C for 45 min. Then agonists were removed and cells were lysed on ice for 30 min with 10 mM formic acid (Millipore Sigma). 1.25 mg of poly-lysine coated YSI SPA beads (Perkin Elmer) was added to each well. The plates were mixed on an orbital shaker for 30 min. The plates were read on a MicroBeta scintillation counter (Perkin Elmer) the following day. IP accumulation assays on different constructs were performed in n ≥ 3 independent experiments (each done in duplicate), where n is shown in Supplementary Table 2.
# OX1R A127T = molecular target: T7, OX1R A127T (Homo sapiens, UniProt O43613, A127T); test: IP accumulation assay, OX1R A127T
# T7 construct: FLAG; expressed in transfected cells; host or cells: HEK293
# T7 sequence (O43613 1-425 A127T): T6 sequence (O43613 1-425 S103T/A127T) with T103S
# Source text: as §2
# OX2R F346A = molecular target: T8, OX2R F346A (Homo sapiens, UniProt O43614, F346A); test: β-arrestin PathHunter assay, OX2R F346A; details: β-arrestin recruitment
# T8 construct: expressed in transfected cells; host or cells: CHO-K1 stably expressing EA β-arrestin2
# T8 sequence (O43614 whole entry F346A): as the sequence (O43614 whole entry T135A) above, with A135T, F346A counted along it
# Description: as §1
# OX2R K327A = molecular target: T9, OX2R K327A (Homo sapiens, UniProt O43614, K327A); test: β-arrestin PathHunter assay, OX2R K327A; details: β-arrestin recruitment
# T9 construct: expressed in transfected cells; host or cells: CHO-K1 stably expressing EA β-arrestin2
# T9 sequence (O43614 whole entry K327A): as the sequence (O43614 whole entry T135A) above, with A135T, K327A counted along it
# Description: as §1
# [1] = 0.75 h, TAK-925 conc (log, M) -4.00
# [2] = 0.75 h, TAK-925 conc (log, M) -4.48
# [3] = 0.75 h, TAK-925 conc (log, M) -4.95
# [4] = 0.75 h, TAK-925 conc (log, M) -5.43
# [5] = 0.75 h, TAK-925 conc (log, M) -5.91
# [6] = 0.75 h, TAK-925 conc (log, M) -6.39
# [7] = 0.75 h, TAK-925 conc (log, M) -7.82
# T1 sequence (O43614 whole entry R328A): as the sequence (O43614 whole entry T135A) above, with A135T, R328A counted along it
compound,measurement,setting,value
"COC(=O)N1CCC[C@H](NS(C)(=O)=O)[C@@H]1CO[C@H]1CC[C@@H](c2ccccc2)CC1 [TAK-925, methyl (2R,3S)−3-[(methylsulfonyl)amino]−2-{[(cis−4-phenylcyclohexyl)oxy]methyl}piperidine-1-carboxylate]",EC50,OX2R R328A,3000 nM
same,EC50,OX2R T135A; IP accumulation,580 nM
same,Emax,OX2R T135A; relative to OX2R WT/TAK-925,90
same,EC50,OX2R H350A,4800 nM
same,EC50,OX2R F228A,600 nM
same,EC50,OX2R Y232A,8500 nM
same,activation at 100 µM,OX1R S103T/A127T; [1],90.6%
same,activation at 33.1 µM,OX1R S103T/A127T; [2],102%
same,activation at 11.2 µM,OX1R S103T/A127T; [3],99.6%
same,activation at 3.72 µM,OX1R S103T/A127T; [4],94.2%
same,activation at 1.23 µM,OX1R S103T/A127T; [5],81.6%
same,activation at 0.407 µM,OX1R S103T/A127T; [6],58.2%
same,activation at 0.138 µM,"OX1R S103T/A127T; 0.75 h, TAK-925 conc (log, M) -6.86",26.9%
same,activation at 0.0151 µM,OX1R S103T/A127T; [7],6.39%
same,EC50,OX1R S103T/A127T; IP accumulation,300 nM
same,Emax,OX1R S103T/A127T; normalized to OX1R S103T/A127T Emax,100
same,activation at 100 µM,OX1R A127T; [1],109%
same,activation at 33.1 µM,OX1R A127T; [2],92.5%
same,activation at 11.2 µM,OX1R A127T; [3],78.5%
same,activation at 3.72 µM,OX1R A127T; [4],56%
same,activation at 1.23 µM,OX1R A127T; [5],27.7%
same,activation at 0.407 µM,OX1R A127T; [6],18.7%
same,activation at 0.0457 µM,"OX1R A127T; 0.75 h, TAK-925 conc (log, M) -7.34",12%
same,activation at 0.0151 µM,OX1R A127T; [7],13.1%
same,activation at 0.0017 µM,"OX1R A127T; 0.75 h, TAK-925 conc (log, M) -8.77",0%
same,EC50,OX1R A127T; IP accumulation,4700 nM
same,% IP accumulation,"OX1R A127T; TAK-925 conc (log, M) -8.77",0.00%
same,Emax,OX1R A127T; relative to OX1R S103T/A127T/TAK-925,100
same,EC50,OX2R F346A,350 nM
same,EC50,OX2R K327A,2300 nM

# Source: article PMC9133036 (Nature Communications, 2022)
